Where two headings read alike, the source gives them in different places.
Assays:
Thrombocyte aggregation = assay: Antithrombotic activity: collagen-induced thrombocyte aggregation in platelet-rich plasma after oral administration (Born and Cross); format: in vivo, rat; conditions: for inhibition at 10 mg/kg / inhibition at 5 mg/kg: po, read-out: Percentage inhibition of aggregation
Method: 1. Antithrombotic activity (see BORN and CROSS, J. Physiol. 170, 397 (1964)):
Groups of three male rats weighing about 500 g are given the test substances, suspended in 1% tylose (A and B) or in distilled water (C), in a volume of 0.2 ml per 100 g of the weight of the animal, by esophageal tube. Shortly before the blood samples are taken (1 hour after administration of the substance) the animals are anesthetised with sodium pentobarbital (50 mg/kg i.p.). After the abdomen has been opened up, the required quantity of blood is taken by puncturing the aorta.
The blood is treated with sodium citrate (0.2% final concentration) to prevent it coagulating. Since the aggregation before and after administration of the substance in rats cannot be measured in the same animal, sets of animals from which the plasma has been pooled are compared. In this way, multiple measurements can be made.
Thrombocyte aggregation is measured in platelet-rich plasma (PRP) (quantity of plasma for each test: 1 ml). In order to obtain the PRP, the blood is centrifuged for 10 minutes at 1,000 to 1,200 revolutions per minute (approx. 150 g). The low-platelet plasma for calibrating the aggregometer is obtained by centrifuging (4,000 rpm for 10 minutes).
The pattern of the decrease in optical density of the platelet suspension after the addition of collagen is measured photometrically and recorded. The height of the curve in mm measured at the moment of maximum light transmittance is the measurement of the intensity of aggregation. A 6-channel aggregometer is used for the measurements.
The quantity of collagen (2 to 5 μl/ml of plasma) is such that an irreversible reaction curve is obtained.
The sets of animals treated with the substance are compared with untreated control groups.

[1] = Tolerability: toxic side effects at the maximum dosages administered; format: in vivo
mouse = assay: Approximate acute toxicity on the mouse after oral administration; format: in vivo; conditions: 250 mg/kg oral, group of 10 animals, observation period of 14 days
Method: The approximate acute toxicity of substance B is tested on the mouse after oral administration of a dosage of 250 mg/kg to a group of 10 animals.

[2] = 10 mg/kg p.o., rat, 1 hour after administration, collagen, control 130 (A), 110 (B)
[3] = maximum dosages administered (10 mg/kg p.o.)
[4] = 5 mg/kg p.o., rat, 1 hour after administration, collagen, control 108 (B), 113 (C)

SMILES	Intensity of Aggregation, Height of curve (opt. density), Substance (Thrombocyte aggregation; [2])	inhibition at 10 mg/kg (Thrombocyte aggregation; Rattus norvegicus, 1 h)	toxic side effects [1, 3]	Intensity of Aggregation, Height of curve (opt. density), Substance (Thrombocyte aggregation; [4])	inhibition at 5 mg/kg (Thrombocyte aggregation; 5 mg/kg p.o., rat, 1 hour after administration, collagen)	toxic side effects ([1]; in vivo, po, 10 mg/kg)	inhibition at 5 mg/kg (Thrombocyte aggregation; Rattus norvegicus, 1 h)	Acute toxicity, deaths (mouse)
COc1cc2c(cc1OC)CC[N+](Cc1ccccc1Cl)=C2.O=S(=O)([O-])O [A, 2-(2-Chlorobenzyl)-6,7-dimethoxy-3,4-dihydro-isoquinolinium hydrogensulphate]	69 mm	47%	do not show any toxic side effects					
COc1cc2c(cc1OC)CC[N+](Cc1cc(OC)c(OC)c(OC)c1)=C2.[Cl-] [C, 2-(3,4,5-Trimethoxybenzyl)-6,7-dimethoxy-3,4-dihydro-isoquinolinium chloride]				10 mm	89%	do not show any toxic side effects		
Clc1ccccc1C[N+]1=Cc2ccccc2CC1.O=S(=O)([O-])O [B, 2-(2-Chlorobenzyl)-3,4-dihydro-isoquinolinium hydrogensulphate]	0 mm	100%	do not show any toxic side effects	0 mm			100%	None of the animals died
